Measured values taken from US8507509B2, “Saturated and insaturated bi- or tricyclic aryloxyacetamine derivatives and their use as fungicides” (Syngenta Crop Protection LLC, priority 2007, dated 2013).

Key:
Septoria tritici = Septoria tritici (leaf blotch), liquid culture growth inhibition in nutrient broth; format: cell-based; conditions: Zymoseptoria tritici; 200 ppm; PDB broth, 24 C; inhibition of growth determined photometrically after 72 hrs; read-out: control of fungal infection, Septoria tritici
Pythium ultimum = Pythium ultimum (Damping off), liquid culture growth inhibition in potato dextrose broth; format: cell-based; conditions: Globisporangium ultimum; 20 ppm; potato dextrose broth, 24° C.; inhibition of growth determined photometrically after 48 hours; read-out: control of fungal infection, Pythium ultimum
Septoria nodorum = Septoria nodorum (wheat glume blotch), wheat leaf segment assay, preventive; format: in vivo; conditions: Parastagonospora nodorum, foliar, 96 h; 200 ppm; wheat leaf segments; assessed four days after inoculation; read-out: control of fungal infection, Septoria nodorum
[1] = test system: Puccinia recondita f.sp. tritici; assay: Puccinia recondita f.sp. tritici (wheat brown rust), wheat leaf segment assay, preventive; format: in vivo; conditions: foliar, 216 h, 200 ppm, wheat leaf segments, assessed nine days after inoculation, read-out: control of fungal infection, Puccinia recondite f.sp. tritici
Plasmopara viticola = Plasmopara viticola (downy mildew of grapevine), grapevine leaf disk assay, preventive; format: in vivo; conditions: foliar, 168 h, 200 ppm, grapevine leaf disks, assessed seven days after inoculation, read-out: control of fungal infection, Plasmopara viticola
Phytophthora infestans = assay: whole plant or invertebrate; format: in vivo; conditions: in Solanum lycopersicum, foliar, 96 h, read-out: control of fungal infection, Phytophthora infestans
Fusarium culmorum = Fusarium culmorum (root rot), liquid culture growth inhibition in nutrient broth; format: cell-based; conditions: PDB broth, 24 C, inhibition of growth determined photometrically after 48 hrs, read-out: control of fungal infection, Fusarium culmorum
Experimental: Mycelia fragments or conidia suspensions of a fungus, prepared either freshly from liquid cultures of the fungus or from cryogenic storage, are directly mixed into nutrient broth. DMSO solutions of the test compound (max. 10 mg/ml) is diluted with 0.025% Tween20 by factor 50 and 10 μl of this solution is pipetted into a microtiter plate (96-well format) and the nutrient broth containing the fungal spores/mycelia fragments is then added to give an end concentration of the tested compound. The test plates are incubated at 24° C. and 96% rH in the dark. The inhibition of fungal growth is determined photometrically after 2-6 days and antifungal activity is calculated.
Fusarium culmorum (root rot): Conidia of the fungus from cryogenic storage were directly mixed into nutrient broth (PDB potato dextrose broth). After placing a (DMSO) solution of the test compounds into a microtiter plate (96-well format) the nutrient broth containing the fungal spores was added. The test plates were incubated at 24 C and the inhibition of growth was determined photometrically after 48 hrs.

[2] = test system: Erysiphe graminis f.sp. tritici; assay: Erysiphe graminis f.sp. tritici (wheat powdery mildew), wheat leaf segment assay, preventive; format: in vivo; conditions: Blumeria graminis, foliar, 96 h; 200 ppm; wheat leaf segments; assessed four days after inoculation; read-out: control of fungal infection, Etysiphe graminis f.sp. tritici
Botrytis cinerea = Botrytis cinerea (grey mould), bean leaf disk assay, preventive; format: in vivo; conditions: foliar, 96 h, 200 ppm, bean leaf disks, assessed four days after inoculation, read-out: control of fungal infection, Botrytis cinerea

CON=C(C)C(C)(C)NC(=O)C(Oc1ccc2ncc(Br)cc2c1)SC (centres unmarked) [Compound No. 111, 2-(3-Bromo-quinolin-6-yloxy)-N-{2-[(E or Z)-methoxyimino]-1,1-dimethyl-propyl}-2-methylsulfanyl-acetamide]
≥ 60%: inhibition of growth at 200 ppm (Septoria tritici) | inhibition of growth at 20 ppm (Pythium ultimum) | pest or weed control at 200 ppm (Septoria nodorum) | pest or weed control at 200 ppm [1] | pest or weed control at 200 ppm (Plasmopara viticola) | pest or weed control at 200 ppm (Phytophthora infestans) | inhibition of growth at 200 ppm (Fusarium culmorum)

CO/N=C(\C)C(C)(C)NC(=O)C(Oc1cc(C)c2ncc(Br)cc2c1)SC (centres unmarked) [Compound No. 32, 2-(3-Bromo-8-methyl-quinolin-6-yloxy)-N-{2-[(E)-methoxyimino]-1,1-dimethyl-propyl}-2-methylsulfanyl-acetamide]
≥ 60%: inhibition of growth at 20 ppm (Pythium ultimum) | pest or weed control at 200 ppm [1] | pest or weed control at 200 ppm (Plasmopara viticola) | pest or weed control at 200 ppm (Phytophthora infestans) | pest or weed control at 200 ppm [2] | inhibition of growth at 200 ppm (Fusarium culmorum)

CCC(Oc1cc(C)c2ncc(I)cc2c1)C(=O)NC(C)(C)C=NOC (centres unmarked) [Compound No. 5, 2-(3-Iodo-8-methyl-quinolin-6-yloxy)-N-(2-methoxyimino-1,1-dimethyl-ethyl)-butyramide]
≥ 60%: inhibition of growth at 200 ppm (Septoria tritici) | pest or weed control at 200 ppm (Septoria nodorum) | pest or weed control at 200 ppm [1] | pest or weed control at 200 ppm (Plasmopara viticola) | pest or weed control at 200 ppm (Phytophthora infestans) | pest or weed control at 200 ppm [2]

CCC(Oc1ccc2ncc(Br)cc2c1)C(=O)NC(C)(C)C=NOC (centres unmarked) [Compound No. 144, 2-(3-Bromo-quinolin-6-yloxy)-N-(2-methoxyimino-1,1-dimethyl-ethyl)-butyramide]
≥ 60%: inhibition of growth at 200 ppm (Septoria tritici) | pest or weed control at 200 ppm [1] | pest or weed control at 200 ppm (Plasmopara viticola) | pest or weed control at 200 ppm (Phytophthora infestans) | pest or weed control at 200 ppm [2] | inhibition of growth at 200 ppm (Fusarium culmorum)

CON=CC1(NC(=O)C(Oc2ccc3ncc(I)cc3c2)SC)CCC1 (centres unmarked) [Compound No. 79, 2-(3-Iodo-quinolin-6-yloxy)-N-[1-(methoxyimino-methyl)-cyclobutyl]-2-methylsulfanyl-acetamide]
≥ 60%: inhibition of growth at 200 ppm (Septoria tritici) | inhibition of growth at 20 ppm (Pythium ultimum) | pest or weed control at 200 ppm (Septoria nodorum) | pest or weed control at 200 ppm [1] | pest or weed control at 200 ppm (Plasmopara viticola) | pest or weed control at 200 ppm (Phytophthora infestans) | pest or weed control at 200 ppm [2] | inhibition of growth at 200 ppm (Fusarium culmorum)

C#Cc1cnc2ccc(OC(CC)C(=O)NC(C)(C)C=NO)cc2c1 (centres unmarked) [Compound No. 147, 2-(3-Ethynyl-quinolin-6-yloxy)-N-(2-hydroxyimino-1,1-dimethyl-ethyl)-butyramide]
≥ 60%: inhibition of growth at 200 ppm (Septoria tritici) | inhibition of growth at 20 ppm (Pythium ultimum) | pest or weed control at 200 ppm (Septoria nodorum) | pest or weed control at 200 ppm [1] | pest or weed control at 200 ppm (Plasmopara viticola) | pest or weed control at 200 ppm (Phytophthora infestans) | pest or weed control at 200 ppm [2] | inhibition of growth at 200 ppm (Fusarium culmorum)

CCC(Oc1ccc2ncc(I)cc2c1)C(=O)NC(C)(C=NOC)COC (centres unmarked) [Compound No. 68, 2-(3-Iodo-quinolin-6-yloxy)-N-(2-methoxyimino-1-methoxymethyl-1-methyl-ethyl]-butyramide]
≥ 60%: inhibition of growth at 200 ppm (Septoria tritici) | pest or weed control at 200 ppm (Septoria nodorum) | pest or weed control at 200 ppm (Botrytis cinerea) | pest or weed control at 200 ppm (Plasmopara viticola) | pest or weed control at 200 ppm (Phytophthora infestans) | pest or weed control at 200 ppm [2]

CCC(Oc1cc(C)c2ncc(Br)cc2c1)C(=O)NC(C)(C)C=NOC (centres unmarked) [Compound No. 145, 2-(3-Bromo-8-methyl-quinolin-6-yloxy)-N-(2-methoxyimino-1,1-dimethyl-ethyl)-butyramide]
≥ 60%: inhibition of growth at 200 ppm (Septoria tritici) | pest or weed control at 200 ppm (Septoria nodorum) | pest or weed control at 200 ppm (Botrytis cinerea) | pest or weed control at 200 ppm (Plasmopara viticola) | pest or weed control at 200 ppm (Phytophthora infestans) | pest or weed control at 200 ppm [2]

CCC(Oc1cc(Cl)c2ncc(Br)cc2c1)C(=O)NC(C)(C)C=NOC (centres unmarked) [Compound No. 146, 2-(3-Bromo-8-chloro-quinolin-6-yloxy)-N-(2-methoxyimino-1,1-dimethyl-ethyl)-butyramide]
≥ 60%: inhibition of growth at 200 ppm (Septoria tritici) | inhibition of growth at 20 ppm (Pythium ultimum) | pest or weed control at 200 ppm (Septoria nodorum) | pest or weed control at 200 ppm [1] | pest or weed control at 200 ppm (Plasmopara viticola) | pest or weed control at 200 ppm (Phytophthora infestans) | pest or weed control at 200 ppm [2] | inhibition of growth at 200 ppm (Fusarium culmorum)

CSC(Oc1ccc2ncc(Br)cc2c1)C(=O)NC(C)(C)C=NOCCF (centres unmarked) [Compound No. 142, 2-(3-Bromo-quinolin-6-yloxy)-N-[2-(2-fluoro-ethoxyimino)-1,1-dimethyl-ethyl]-2-methylsulfanyl-acetamide]
≥ 60%: inhibition of growth at 200 ppm (Septoria tritici) | inhibition of growth at 20 ppm (Pythium ultimum) | pest or weed control at 200 ppm [1] | pest or weed control at 200 ppm (Plasmopara viticola) | pest or weed control at 200 ppm (Phytophthora infestans) | pest or weed control at 200 ppm [2] | inhibition of growth at 200 ppm (Fusarium culmorum)

C#Cc1cnc2ccc(OC(SC)C(=O)NC3(C=NOC)CCC3)cc2c1 (centres unmarked) [Compound No. 78, 2-(3-ethynyl-quinolin-6-yloxy)-N-[1-(methoxyimino-methyl)-cyclobutyl]-2-methylsulfanyl-acetamide]
≥ 60%: inhibition of growth at 200 ppm (Septoria tritici) | inhibition of growth at 20 ppm (Pythium ultimum) | pest or weed control at 200 ppm (Septoria nodorum) | pest or weed control at 200 ppm [1] | pest or weed control at 200 ppm (Plasmopara viticola) | pest or weed control at 200 ppm (Phytophthora infestans) | inhibition of growth at 200 ppm (Fusarium culmorum)

C#Cc1cnc2cc(F)c(OC(CC)C(=O)NC(C)(C)C=NOC)cc2c1 (centres unmarked) [Compound No. 134, 2-(3-Ethynyl-7-fluoro-quinolin-6-yloxy)-N-(2-methoxyimino-1,1-dimethyl-ethyl)-butyramide]
≥ 60%: inhibition of growth at 200 ppm (Septoria tritici) | inhibition of growth at 20 ppm (Pythium ultimum) | pest or weed control at 200 ppm (Septoria nodorum) | pest or weed control at 200 ppm [1] | pest or weed control at 200 ppm (Plasmopara viticola) | pest or weed control at 200 ppm (Phytophthora infestans) | pest or weed control at 200 ppm [2] | inhibition of growth at 200 ppm (Fusarium culmorum)

CON=CCNC(=O)C(Oc1ccc2ncc(Br)cc2c1)SC (centres unmarked) [Compound No. 93, 2-(3-Bromo-quinolin-6-yloxy)-N-(2-methoxyimino-ethyl)-2-methylsulfanyl-acetamide]
≥ 60%: inhibition of growth at 200 ppm (Septoria tritici) | pest or weed control at 200 ppm (Septoria nodorum) | pest or weed control at 200 ppm [1] | pest or weed control at 200 ppm (Plasmopara viticola) | pest or weed control at 200 ppm (Phytophthora infestans) | pest or weed control at 200 ppm [2] | inhibition of growth at 200 ppm (Fusarium culmorum)

CC#CCON=CC(C)(C)NC(=O)C(Oc1ccc2ncc(Br)cc2c1)SC (centres unmarked) [Compound No. 141, 2-(3-Bromo-quinolin-6-yloxy)-N-(2-but-2-ynyloxyimino-1,1-dimethyl-ethyl)-2-methylsulfanyl-acetamide]
≥ 60%: inhibition of growth at 200 ppm (Septoria tritici) | inhibition of growth at 20 ppm (Pythium ultimum) | pest or weed control at 200 ppm [1] | pest or weed control at 200 ppm (Plasmopara viticola) | pest or weed control at 200 ppm (Phytophthora infestans) | pest or weed control at 200 ppm [2] | inhibition of growth at 200 ppm (Fusarium culmorum)

CON=CC(C)(C)NC(=O)C(OC)Oc1cc(C)c2ncc(C#C[Si](C)(C)C)cc2c1 (centres unmarked) [Compound No. 75, 2-Methoxy-N-(2-methoxyimino-1,1-dimethyl-ethyl)-2-(8-methyl-3-trimethylsilanylethynyl-quinolin-6-yloxy)-acetamide]
≥ 60%: pest or weed control at 200 ppm (Septoria nodorum) | pest or weed control at 200 ppm (Botrytis cinerea) | pest or weed control at 200 ppm (Plasmopara viticola) | pest or weed control at 200 ppm (Phytophthora infestans) | pest or weed control at 200 ppm [2]

C#Cc1cnc2c(C)cc(OC(CC)C(=O)NC(C)(C)C=NOCC=C)cc2c1 (centres unmarked) [Compound No. 138, N-(2-Allyloxyimino-1,1-dimethyl-ethyl)-2-(3-ethynyl-8-methyl-quinolin-6-yloxy)-butyramide]
≥ 60%: inhibition of growth at 200 ppm (Septoria tritici) | inhibition of growth at 20 ppm (Pythium ultimum) | pest or weed control at 200 ppm (Septoria nodorum) | pest or weed control at 200 ppm [1] | pest or weed control at 200 ppm (Plasmopara viticola) | pest or weed control at 200 ppm (Phytophthora infestans) | pest or weed control at 200 ppm [2]

CCC(Oc1ccc2ncc(I)cc2c1)C(=O)NC(C)(C)C=NOCCF (centres unmarked) [Compound No. 155, N-[2-(2-Fluoro-ethoxyimino)-1,1-dimethyl-ethyl]-2-(3-iodo-quinolin-6-yloxy)-butyramide]
≥ 60%: inhibition of growth at 200 ppm (Septoria tritici) | pest or weed control at 200 ppm (Septoria nodorum) | pest or weed control at 200 ppm [1] | pest or weed control at 200 ppm (Plasmopara viticola) | pest or weed control at 200 ppm (Phytophthora infestans) | pest or weed control at 200 ppm [2] | inhibition of growth at 200 ppm (Fusarium culmorum)
